Legend:
[1] = tested on: mice subjected to the formalin test; assay: Formalin test (inflammatory pain model), pain behavior in mice; assay type: in vivo, mouse
Method: The formalin test, which is an inflammatory pain model and is commonly used as a neuropathic pain model in a broad sense, was used to evaluate the pain-inhibiting effect of disulfiram (DSF).
In the formalin test, each mouse was placed in a transparent container for 30 minutes for acclimation to the analysis environment. Thereafter, a test drug or a solvent control (a solution of 10% DMSO and 2% Tween-80) was administered intraperitoneally to each mouse, and 30 minutes later, 20 μL of 1% formalin was injected subcutaneously from the palmar surface of the right hind paw to observe pain behavior in each mouse. The duration (sec.) of paw lifting and paw licking was used as a measured value of intensity of pain.
The formalin test is one of the commonly used models that are used as pain models to evaluate analgesic effects. A biphasic pain-like behavior is observed in the formalin test; the first response appears within 5 minutes and disappears till 10 minutes after the administration of formalin, and the second response is a response that reappears within 10 to 15 minutes after the administration of formalin (FIG. 1A).
DSF is metabolized in the body to generate diethyldithiocarbamate (DDC). The analgesic effects of metal complexes of DDC, which are considered to generate DDC in the body as well as DSF, was evaluated by the formalin test. The formalin test was performed in the same manner as in the above-described section 1. except that a copper complex of DDC (Cu(DDC)2) and an iron(III) complex of DDC (Fe(DDC)3) were used as test drugs. Either of the complexes was administered to mice at a dose of 40 mg/kg.

[2] = tested on: sciatic nerve ligation (CCI) mouse; assay: Sciatic nerve ligation (CCI) model, plantar test of pain threshold for heat; assay type: in vivo; settings: 40 mg/kg intraperitoneally, plantar test 30 min after administration; p<0.01 (FIG. 2)
Text: Since central sensitization was known to be involved in the second phase pain response in the formalin test, DSF was expected to also exert its effects on neuropathic pain. […] Thus, the sciatic nerve ligation (CCI) model, which is commonly used as a neuropathic pain mouse model, was used to evaluate the efficacy of DSF. In the sciatic nerve ligation (CCI) mouse group, a femoral region of each mouse was cut open and the muscle layer was removed to expose the sciatic nerve, and the sciatic nerve was ligated with 6-0 silk sutures at three positions spaced 1 mm apart, and the incision was then closed. In contrast, each mouse in the sham operation (Sham) group was subjected to the same operation till the muscle layer was removed, and the incision was then closed without ligating the exposed sciatic nerve. On one week postsurgery or later, the planter test was performed to evaluate the pain threshold for heat, which was a stimulus not associated with stimulant administration, in those mice. DSF was administered intraperitoneally to mice in the CCI DSF group at a dose of 40 mg/kg. The solvent control (a solution of 10% DMSO and 2% Tween-80) was administered instead of DSF to mice in the CCI control group. The plantar test was performed 30 minutes after administration.

CCN(CC)C(=S)SSC(=S)N(CC)CC [DSF, tetraethylthiuram disulfide]
analgesic effect (suppression of the second response) at 10 mg/kg ([1]; 10 mg/kg intraperitoneally, versus solvent control (FIG. 1C)): significant analgesic effects | suppression of the second response (pain score) in the formalin test ([1]; 40 mg/kg intraperitoneally, 30 min before 1% formalin, p<0.001 (FIG. 1B)): strongly suppressed | dose dependency of suppression of the second response relative to solvent control (100%) ([1]; DSF dose groups, intraperitoneal (FIG. 1C)): analgesic effects in a dose-dependent manner | analgesic effect compared with existing analgesics (pregabalin, loxoprofen, aspirin), suppression of the second response ([1]; all drugs at a fixed dose of 40 mg/kg (FIG. 1D)): stronger analgesic effects than all of the tested existing analgesics | sedative effect (behavior of treated mice) ([1]; mice in the formalin test after intraperitoneal administration): behaved more quietly | reduction in pain threshold associated with sciatic nerve ligation (CCI) [2]: prevented to a significant degree
